The results in this text go back to patent publication US9770481B2, “Inhibitors of NOX1” (UNIVERSITY OF PITTSBURGH—OF THE COMMONWEALTH SYSTEM OF …, priority 2011, dated 2017).

For test [1], the system named is HT-29 colon adenocarcinoma cells. The experiment in a line: O2- production by HT-29 cells (SOD inhibitable reduction of cytochrome c). The format is cell-based. The note with it: increasing doses.
Test [2] relates to xanthine oxidase. The experiment in a line: O2- production by pure xanthine oxidase stimulated with hypoxanthine (EPR). The format is biochemical. The note with it: 0.1 nM to 10,000 nM. The protocol: To test whether the inhibitory effect of NoxA1ds is specific to Nox1, the effect of NoxA1ds was tested on cells expressing Nox2, Nox4, and Nox5 as well as on purified xanthine oxidase enzyme. To test the effect on Nox2, production of O2^− was measured by the reduction of cytochrome c by cell lysates from COS cells transiently transfected with the Nox2 oxidase, stimulated with LiDS, and the treated with increasing concentrations of NoxA1ds (from 0.1 nM to 10,000 nM). Similarly, production of H2O2 was measured by Amplex red fluorescence by COS cells transiently transfected with the Nox4 oxidase and treated with increasing concentrations of NoxA1ds (from 100 nM to 10,000 nM). Production of O2^− was also measured by the reduction of cytochrome c by cell lysates from HEK293 cells stably transfected with the Nox5 oxidase stimulated with Ca^2+, and treated with increasing concentrations of NoxA1ds (from 0.1 nM to 10,000 nM). Finally, production of O2^− was measured by Electron Paramagnetic Resonance from pure xanthine oxidase enzyme preparations, stimulated with hypoxanthine and treated with increasing concentrations of NoxA1ds (from 0.1 nM to 10,000 nM).

Test [3] concerns rat aortic smooth muscle cells. Briefly: Stretch-induced migration of rat aortic smooth muscle cells (wound closure). In kind it is cell-based. The conditions noted are these: 10 μM added every four hours; cyclic stretch 24 hrs. How it is done: The effect on NoxA1ds on stretch-induced migration of rat aortic smooth muscle cells was studied. Cell monolayer cultures with an introduced gap (“wound”) were subjected to 24 hrs of cyclic stretch (10%, 1 Hz) with 10 μM NoxA1ds or SCRMB control being added every four hours. Cell migration may be assessed as the distance the wound has closed, where greater […] corresponds to greater migration. Cell migration increased as a result of cyclic stretch.

For test [4], the target named is T1, Nox1 (Homo sapiens, UniProt Q9Y5S8).
T1 construct: expressed in transfected cells; host or cells: COS22 (monkey kidney COS cells stably expressing human p22phox)
T1 sequence (Q9Y5S8 1-564): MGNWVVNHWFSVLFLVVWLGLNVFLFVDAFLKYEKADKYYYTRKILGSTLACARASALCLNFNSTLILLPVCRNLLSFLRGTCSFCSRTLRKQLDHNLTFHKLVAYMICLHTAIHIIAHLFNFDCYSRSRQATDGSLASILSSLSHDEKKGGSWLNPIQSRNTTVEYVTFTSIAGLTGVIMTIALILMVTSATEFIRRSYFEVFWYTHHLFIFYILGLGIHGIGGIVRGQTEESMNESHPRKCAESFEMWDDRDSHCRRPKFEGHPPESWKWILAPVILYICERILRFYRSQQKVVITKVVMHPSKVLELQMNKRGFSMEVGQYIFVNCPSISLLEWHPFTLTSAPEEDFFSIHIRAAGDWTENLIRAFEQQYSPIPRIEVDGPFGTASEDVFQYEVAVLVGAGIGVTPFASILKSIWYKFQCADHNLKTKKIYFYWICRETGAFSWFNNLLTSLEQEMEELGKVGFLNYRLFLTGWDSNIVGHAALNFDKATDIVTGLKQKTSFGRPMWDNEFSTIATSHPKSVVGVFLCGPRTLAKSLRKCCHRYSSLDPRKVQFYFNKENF
T1 sequence (P13498 1-195 partner): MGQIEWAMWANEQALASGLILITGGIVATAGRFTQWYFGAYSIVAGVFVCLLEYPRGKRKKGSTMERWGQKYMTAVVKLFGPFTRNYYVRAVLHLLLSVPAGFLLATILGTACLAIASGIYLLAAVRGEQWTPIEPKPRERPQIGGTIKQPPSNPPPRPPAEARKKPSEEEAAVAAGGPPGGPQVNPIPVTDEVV
Briefly: O2- production by COS22 cells transfected with Nox1 (cytochrome c reduction). In kind it is cell-based. The conditions noted are these: COS 22; at a dose of 1.0 μM; read-out: Maximal inhibition of total O2- production. The protocol: Experiments were performed to test the effect of NoxA1ds on O2^− production by Nox1. COS22 is a monkey kidney COST cell line expressing transgenic human p22phox and was produced by stable transfection of the full-length p22phox cDNA into parental COST wild-type cells. COS22 cells were transfected with Nox1 to express the Nox1 enzyme and were then treated with either NoxA1ds or its scrambled control (SCRMB). Production of O2^− was calculated by monitoring the reduction of cytochrome c for 15 minutes post NADPH addition and subtracting baseline cytochrome c reduction occurring in the presence of SOD.

In test [5] the test system is Nox1-YFP. Briefly: Image cross correlation spectroscopy (ICCS) of R-NoxA1ds and Nox1-YFP. The note with it: unlabelled competitor. The format is binding. How it is done: An ELISA of Nox1:NoxA1ds interaction was performed as follows. Neutravidin coated plates were incubated with biotin-tagged NoxA1ds (Biotin-NoxA1ds) or biotin-tagged SCRMB (Biotin-SCRMB) before addition of cell membranes prepared from cells transfected with Nox1 (Nox1 membrane) or transfected with an empty vector (COS22 membrane). Bound Nox1 was detected through a FITC conjugated secondary antibody (αRabbit Ab Sigma F9887) bound to the Nox1 primary antibody (rabbit αNox1 Ab (SC-25545, Santa Cruz Biotechnology)). FITC fluorescence was expressed as binding as % COS22 membranes on each experimental day. […] To further confirm the association, image cross correlation spectroscopy (ICCS) was used to determine patterns in signal fluctuation between rhodamine-labeled NoxA1ds (R-NoxA1ds) and Nox1-YFP though a sequence of 100 images 0.05 s apart. Correlation and cross-correlation was calculated using an ImageJ plugin.

Take “H-EPVDALGKAKV-NH2 [NoxA1ds, [NH3^+]-EPVDALGKAKV-[CONH2]]”: the “Inhibition of O2- production by HT-29 cells” value in test [1] is recorded as “dose-dependent inhibition”. The “Inhibitory effect on xanthine oxidase O2- production” value in test [2] is “did not exhibit a significant inhibitory effect”. In addition, the “Stretch-induced cell migration (wound closure)” value in test [3] was “reduced migration to levels observed in non-stretched cells”. In addition, the inhibition at 1 µM in test [4] was determined as 88%. Also, the “Effect of competition with R-NoxA1ds on fractional binding” value in test [5] is on record as “significantly reduced the fractional binding”.

A word on the inhibition: it is the change of the read-out against control, counted positive when it falls.
